21 compounds from ChEMBL document CHEMBL3045215, “Synthesis and insecticidal activity of 3,4-dihydropyrimidine-2(1H)-thiones against the pulse beetle, Callosobruchus chinensis” (2011) can be followed below.

Structures are written as SMILES.

The subject of assay [1] is Callosobruchus chinensis. The experiment in a line: Insecticidal activity against Callosobruchus chinensis adults reared on green gram assessed as insect mortality after 24 hr. It counts as functional.
Assay [2] has as its system Callosobruchus chinensis. The experiment in a line: Insecticidal activity against Callosobruchus chinensis adults reared on green gram assessed as insect mortality at 1000 mg/L after 24 hr. It counts as functional.

The mortality is the percentage killed. On to `SC1=NC(c2ccccc2)=CC(c2ccccc2)N1` (configuration not stated), for which the LC50 in assay [1] was determined as 0.00795 mg/cm2. Further, the mortality at 1000 µg/mL in assay [2] turned out to be 75%.
On to `COc1ccc(C2=CC(c3ccc(OC)cc3)NC(=S)N2)cc1` (configuration not stated), for which the mortality at 1000 µg/mL in assay [2] worked out at 70%.
For `S=C1NC(c2ccc(Cl)cc2)=CC(c2ccccc2)N1` (configuration not stated), the LC50 in assay [1] worked out at 0.00556 mg/cm2. Moreover, the mortality at 1000 µg/mL in assay [2] came to 78%.
As to `Cc1ccc(C2=CC(c3ccccc3)NC(=S)N2)cc1` (configuration not stated), the mortality at 1000 µg/mL in assay [2] came to 66%.
Regarding `COc1ccc(C2=CC(c3ccccc3)NC(=S)N2)cc1` (configuration not stated), the mortality at 1000 µg/mL in assay [2] stood at 68%.
Regarding `Fc1ccc(C2C=C(c3ccccc3)NC(=S)N2)cc1` (configuration not stated), in assay [2], the mortality at 1000 µg/mL is 60%.
In the case of `Fc1ccc(C2C=C(c3ccc(Cl)cc3)NC(=S)N2)cc1` (configuration not stated), the LC50 in assay [1] is 0.00461 mg/cm2. For the same compound, the mortality at 1000 µg/mL in assay [2] was 75%.
In the case of `Cc1ccc(C2=CC(c3ccc(F)cc3)NC(=S)N2)cc1` (configuration not stated), in assay [2], the mortality at 1000 µg/mL is 68%.
`COc1ccc(C2=CC(c3ccc(F)cc3)NC(=S)N2)cc1` (configuration not stated): in assay [1], the LC50 is listed as 0.00304 mg/cm2. In assay [2], the mortality at 1000 µg/mL was 86%.
Take `S=C1NC(c2ccccc2)=CC(c2ccc(Cl)cc2)N1` (configuration not stated): in assay [1], the LC50 is listed as 0.00289 mg/cm2. The mortality at 1000 µg/mL in assay [2] was 90%.
Turning to `S=C1NC(c2ccc(Cl)cc2)=CC(c2ccc(Cl)cc2)N1` (configuration not stated), the mortality at 1000 µg/mL in assay [2] came out at 69%.
As to `Cc1ccc(C2=CC(c3ccc(Cl)cc3)NC(=S)N2)cc1` (configuration not stated), in assay [1], the LC50 is given as 0.01227 mg/cm2. Moreover, in assay [2], the mortality at 1000 µg/mL came out at 93%.
In the same order, the values of `COc1ccc(C2=CC(c3ccc(Cl)cc3)NC(=S)N2)cc1` (configuration not stated) are 0.00175 mg/cm2 and 82%.
On the same counts, the results for `S=C1NC(c2ccccc2)=CC(c2ccccc2Cl)N1` (configuration not stated) are 0.00201 mg/cm2 and 78%.
For `S=C1NC(c2ccc(Cl)cc2)=CC(c2ccccc2Cl)N1` (configuration not stated), the LC50 in assay [1] is on record as 0.00524 mg/cm2. In assay [2], the mortality at 1000 µg/mL worked out at 85%.
With `Cc1ccc(C2=CC(c3ccccc3Cl)NC(=S)N2)cc1` (configuration not stated), in assay [1], the LC50 is 0.00122 mg/cm2. In assay [2], the mortality at 1000 µg/mL was 87%.
With `COc1ccc(C2=CC(c3ccccc3Cl)NC(=S)N2)cc1` (configuration not stated), the mortality at 1000 µg/mL in assay [2] was determined as 68%.
With `COc1ccc(C2C=C(c3ccccc3)NC(=S)N2)cc1` (configuration not stated), the LC50 in assay [1] is 0.00164 mg/cm2. In addition, the mortality at 1000 µg/mL in assay [2] was 60%.
Regarding `COc1ccc(C2C=C(c3ccc(Cl)cc3)NC(=S)N2)cc1` (configuration not stated), the mortality at 1000 µg/mL in assay [2] came out at 40%.
`COc1ccc(C2C=C(c3ccc(C)cc3)NC(=S)N2)cc1` (configuration not stated): the mortality at 1000 µg/mL in assay [2] was determined as 80%.
On to `COP(=O)(OC)OC=C(Cl)Cl` [DICHLORVOS], for which, in assay [1], the LC50 came out at 0.00243 mg/cm2.
